{"source": "patent US20170129932A1", "about": "“METHOD FOR PREPARING RECOMBINANT GLYCOPROTEIN HAVING HIGH SIALIC ACID CONTENT, THROUGH GLYCOSPHINGOLIPID SYNTHESIS CYCLE CONTROL” (KOREA ADVANCED INSTITUTE OF SCIENCE AND TECHNOLOGY, priority 2014, published 2017)", "key": {"EC2-1H9 cell line [1]": {"system": "EC2-1H9 cell line", "details": "WGA lectin blotting, EC2-1H9 cells, 1 μM EtDO-P4, FIGS. 1B and 1C", "quoted_text": "Particularly, in order to treat EtDO-P4, the cells (5×10^6) were cultured in 100-mm plates containing MEM-α supplemented with 10% dFBS for 24 hours. The cells were washed twice with serum-free MEM-α. Then, the cells were added with 1 μM EtDO-P4/MEM-α, followed by further culture for 48 hours."}, "EC2-1H9 cell line [2]": {"system": "EC2-1H9 cell line", "experiment": "Glycosphingolipid (GSL) extraction and TLC in EC2-1H9 cells", "assay_type": "cell-based, Chinese hamster", "details": "1 μM EtDO-P4, 48 hours, FIG. 1A", "protocol": "Glycosphingolipid (GSL) was sonicated for 30 minutes, followed by extraction using chloroform/methanol (C/M; 2:1, v/v) and isopropanol/hexane/water (IPA/H/W; 55:25:20 v/v/v). The GSL extract was dissolved in 0.1 M NaOH/MeOH, followed by culture for 2 hours at 40 °C. The extract was neutralized with 1 N HCl, to which hexane was added. The mixture stood for 5 minutes. The lower layer was evaporated in the N2 atmosphere, and the remaining part was dissolved in distilled water. The mixture was applied to […] (Varian, Palo Alto, Calif.). After washed with distilled water, total GSL was extracted with C/M, followed by evaporation. The residue dissolved in C/M was spotted on TLC plate (Silica Gel 60 F-254, Merck), followed by development in C/M/0.2% CaCl2 (55:40:10, v/v/v). The plate was then stained with 2% orcinol in 2 M H2SO4 by spraying."}}, "data": [{"smiles": "CCCCCCCCCCCCCCCC(=O)N[C@H](CN1CCCC1)[C@H](O)c1ccc2c(c1)OCCO2", "note": "[EtDO-P4, D-threo-1-(3′,4′-ethylenedioxy)-phenyl-2-palmitoylamino-3-pyrrolidino-1-propanol]", "values": [{"measurement": "increase of sialic acid content of purified rhEpo", "setting": "EC2-1H9 cell line [1]", "result": "up to 22%"}, {"measurement": "major GSLs, GM1, GM2, and GM3", "setting": "EC2-1H9 cell line [2]", "result": "reduced completely"}]}]}
